Source: the Kinase Knowledgebase extract (Sharma et al. 2016)
pKi: −log10 of the molar value.

These compounds were tested against CDK2 (UniProt P24941) (assay: Enzyme Assay). Details: not given.

pKi	SMILES
6.15	COc1cc(O)c(Br)c(-c2csc(-c3sc(Nc4cc(OC)c(OC)c(OC)c4)nc3N)n2)c1
5.49	Nc1nc(Nc2ccc(S(N)(=O)=O)cc2)sc1-c1nc(-c2cc3ccccc3s2)cs1
7.24	Nc1nc(Nc2ccc(S(N)(=O)=O)cc2)sc1-c1nc(C(=O)Nc2ccccc2)cs1

Same assay, conditions: concentration not given here

SMILES	inhibition [%]
COc1cc(Nc2nc(N)c(-c3nc(-c4ccc5c(c4)C(C)(C)CCC5(C)C)cs3)s2)cc(OC)c1OC	4.2
COc1cc(Nc2nc(N)c(-c3nc(-c4cc(C)c(O)c(C)c4)cs3)s2)cc(OC)c1OC	28.4
CCOC(=O)c1ccccc1-c1csc(-c2sc(Nc3cc(OC)c(OC)c(OC)c3)nc2N)n1	4.4
COc1cc(Nc2nc(N)c(-c3nc(-c4cccc(OC(=O)c5ccccc5)c4)cs3)s2)cc(OC)c1OC	-12.3
COc1cc(Nc2nc(N)c(-c3nc(-c4sc5ccccc5c4C)cs3)s2)cc(OC)c1OC	23.1
CCc1cc2c(cc1-c1csc(-c3sc(Nc4cc(OC)c(OC)c(OC)c4)nc3N)n1)C(C)(C)CCC2(C)C	13.8
COc1cc(Nc2nc(N)c(-c3nc(-c4cc(C(C)(C)C)c(O)c(C(C)(C)C)c4)cs3)s2)cc(OC)c1OC	5.3
COc1cc(Nc2nc(N)c(-c3nc(-c4csc5ccccc45)cs3)s2)cc(OC)c1OC	9.1
COc1cc(Nc2nc(N)c(-c3nc(-c4ccc(Cl)c(Cl)c4)cs3)s2)cc(OC)c1OC	7.3
COc1cc(Nc2nc(N)c(-c3nc(-c4cc(C)sc4C)cs3)s2)cc(OC)c1OC	7.3
CC(C)c1ccc(Nc2nc(N)c(-c3nc(-c4ccc5oc6ccccc6c5c4)cs3)s2)cc1	-4.3
Nc1nc(Nc2ccc(S(N)(=O)=O)cc2)sc1-c1nc(-c2ccc(-c3ccccc3)cc2)cs1	0
COc1cc(Nc2nc(N)c(-c3nc(-c4c(Cl)c(Cl)nc(Cl)c4Cl)cs3)s2)cc(OC)c1OC	10.3
COc1cc(OC)c(-c2csc(-c3sc(Nc4cc(OC)c(OC)c(OC)c4)nc3N)n2)c(O)c1Cl	11.8
COc1cc(Nc2nc(N)c(-c3nc(-c4ccccc4OC(=O)c4ccccc4)cs3)s2)cc(OC)c1OC	4.6
COc1cc(Nc2nc(N)c(-c3nc(-c4c(-c5ccccc5)noc4C)cs3)s2)cc(OC)c1OC	13.6
Cc1c(-c2csc(-c3sc(Nc4ccc(N(C)C)cc4)nc3N)n2)sc2ccc(Cl)cc12	27.2
CCCCCc1ccc(-c2csc(-c3sc(Nc4ccc(N(C)C)cc4)nc3N)n2)cc1	-6
N#Cc1ccc(-c2csc(-c3sc(Nc4ccc(S(N)(=O)=O)cc4)nc3N)n2)cc1	13.3
COc1cc(Nc2nc(N)c(-c3noc(-c4ccsc4)n3)s2)cc(OC)c1OC	21
Cc1c(-c2csc(-c3sc(Nc4ccc(S(N)(=O)=O)cc4)nc3N)n2)sc2ccc(Cl)cc12	61.5
CN(C)c1ccc(Nc2nc(N)c(-c3nc(-c4ccc5c(c4)CCC(=O)N5)cs3)s2)cc1	-2.5
CN(C)c1ccc(Nc2nc(N)c(-c3nc(-c4cccc(OC(=O)c5ccccc5)c4)cs3)s2)cc1	27.1
COc1cc(Nc2nc(N)c(C3=NC(c4cc(F)c(C)c(Cl)c4)CS3)s2)cc(OC)c1OC (stereo unspecified)	-7.5
CN(C)c1ccc(Nc2nc(N)c(-c3nc(-c4ccccc4[N+](=O)[O-])cs3)s2)cc1	8.3
COc1ccccc1-c1csc(-c2sc(Nc3ccc(N(C)C)cc3)nc2N)n1	-6.4
COc1ccc2nc(-c3ccccc3)c(-c3csc(-c4sc(Nc5cc(OC)c(OC)c(OC)c5)nc4N)n3)cc2c1	-2.7
Nc1nc(Nc2ccc(S(N)(=O)=O)cc2)sc1-c1nc(-c2ccc(F)cc2F)cs1	57

SMILES	inhibition [%]
COc1cc(Nc2nc(N)c(-c3nc(-c4cc(C(=O)C(Cl)(Cl)Cl)n(C)c4)cs3)s2)cc(OC)c1OC	3.9
CCOC(=O)c1nc(-c2sc(Nc3ccc(S(N)(=O)=O)cc3)nc2N)sc1Cc1ccccc1	36
COc1cc(Nc2nc(N)c(-c3nc(-c4cc(Br)c(Cl)s4)cs3)s2)cc(OC)c1OC	-0.2
COc1cc(Nc2nc(N)c(-c3nc(-c4ccc5oc6ccccc6c5c4)cs3)s2)cc(OC)c1OC	19
Nc1nc(Nc2ccc(S(N)(=O)=O)cc2)sc1-c1nc(-c2cccc([N+](=O)[O-])c2)cs1	17.8
COc1cc(Nc2nc(N)c(-c3nc(-c4cc(-c5ccc(Cl)c(Cl)c5)no4)cs3)s2)cc(OC)c1OC	17.5
CC(C)c1ccc(Nc2nc(N)c(-c3nc(-c4ccccc4)cs3)s2)cc1	20.9
COc1ccc(OC)c(-c2csc(-c3sc(Nc4cc(OC)c(OC)c(OC)c4)nc3N)n2)c1	12.2
Cc1c(-c2csc(-c3sc(Nc4ccc(C(C)C)cc4)nc3N)n2)sc2ccc(Cl)cc12	34.8
Nc1nc(Nc2ccc(S(N)(=O)=O)cc2)sc1-c1nc(-c2ccc(F)cc2)cs1	27
COc1cc(Nc2nc(N)c(-c3nc(-c4c(Cl)cc(C(F)(F)F)cc4Cl)cs3)s2)cc(OC)c1OC	-6
CC(C)c1ccc(Nc2nc(N)c(-c3nc(-c4ccc(OC(=O)c5ccccc5)cc4)cs3)s2)cc1	7.3
Cc1c(F)cc(-c2csc(-c3sc(Nc4ccc(S(N)(=O)=O)cc4)nc3N)n2)cc1Cl	25
COc1cc(Nc2nc(N)c(-c3nc(-c4c(C)c(C)c(C)c(C)c4C)cs3)s2)cc(OC)c1OC	19.8
COc1cc(Nc2nc(N)c(-c3nc(-c4ccc5c(c4)CCC(=O)N5)cs3)s2)cc(OC)c1OC	-7.8
CCCCCc1ccc(-c2csc(-c3sc(Nc4ccc(S(N)(=O)=O)cc4)nc3N)n2)cc1	-9.9
COc1ccc(-c2csc(-c3sc(Nc4ccc(C(C)C)cc4)nc3N)n2)c(OC)c1	-22.6
COc1cc(Nc2nc(N)c(-c3nc(-c4ccc(OC(=O)c5ccccc5)cc4)cs3)s2)cc(OC)c1OC	14.6
CCOC(=O)c1cc(-c2csc(-c3sc(Nc4cc(OC)c(OC)c(OC)c4)nc3N)n2)on1	23.2
Nc1nc(Nc2ccc(S(N)(=O)=O)cc2)sc1C1=NC2(O)OCCC2S1 (stereo unspecified)	29
COc1cc(Nc2nc(N)c(-c3nc(-c4cc(-c5ccccc5)no4)cs3)s2)cc(OC)c1OC	11.2
COc1ccc(-c2csc(-c3sc(Nc4cc(OC)c(OC)c(OC)c4)nc3N)n2)c(OC)c1	4.9
CC(C)c1ccc(Nc2nc(N)c(-c3nc(-c4ccc(Cl)cc4Cl)cs3)s2)cc1	15.1
COc1cc(Nc2nc(N)c(-c3nc(-c4ccccc4OC(C)=O)cs3)s2)cc(OC)c1OC	1.6
Cc1onc(-c2ccccc2)c1-c1csc(-c2sc(Nc3ccc(S(N)(=O)=O)cc3)nc2N)n1	-4.5
Nc1nc(Nc2ccc(S(N)(=O)=O)cc2)sc1-c1nc(-c2ccc(Cl)cc2Cl)cs1	36
COc1cc(Nc2nc(N)c(-c3nc(-c4ccc(CC(=O)O)s4)cs3)s2)cc(OC)c1OC	26.7

More lines, now with the values ahead:

inhibition [%]	SMILES
0	COC(=O)c1ccc(-c2csc(-c3sc(Nc4cc(OC)c(OC)c(OC)c4)nc3N)n2)cc1
9.65	COc1cc(Nc2nc(N)c(-c3nc(-c4sc5ccc(Cl)cc5c4C)cs3)s2)cc(OC)c1OC
-4.4	COc1cc(Nc2nc(N)c(-c3nc(-c4ccc(Cl)c(C)c4)cs3)s2)cc(OC)c1OC
-3.5	COc1ccccc1-c1csc(-c2sc(Nc3cc(OC)c(OC)c(OC)c3)nc2N)n1
6.3	CCN(CC)c1ccc(-c2csc(-c3sc(Nc4cc(OC)c(OC)c(OC)c4)nc3N)n2)cc1
20.4	COc1cc(Nc2nc(N)c(-c3nc(-c4ccc(-c5ccccc5)cc4)cs3)s2)cc(OC)c1OC
3	COc1cc(Nc2nc(N)c(-c3nc(-c4ccc(O)cc4)cs3)s2)cc(OC)c1OC
11.3	CCCCCc1ccc(-c2csc(-c3sc(Nc4cc(OC)c(OC)c(OC)c4)nc3N)n2)cc1
15.6	COc1cc(Nc2nc(N)c(-c3nc(-c4ccc(C#N)cc4)cs3)s2)cc(OC)c1OC
13.9	COc1cc(Nc2nc(N)c(-c3nc(-c4ccc(C(F)(F)F)cc4)cs3)s2)cc(OC)c1OC
12.4	COc1cc(Nc2nc(N)c(-c3nc(-c4ccc(-c5ccc(Cl)cc5Cl)o4)cs3)s2)cc(OC)c1OC
-10.3	COc1cc(Nc2nc(N)c(-c3nc(-c4ccc(O)c(O)c4)cs3)s2)cc(OC)c1OC
1.9	COc1cc(Nc2nc(N)c(-c3nc(-c4ccccc4[N+](=O)[O-])cs3)s2)cc(OC)c1OC
-5	COc1cc(Nc2nc(N)c(-c3nc(-c4ccc(F)c(F)c4)cs3)s2)cc(OC)c1OC
-4.8	COc1cc(Nc2nc(N)c(-c3nc(-c4ccc(Cl)c([N+](=O)[O-])c4)cs3)s2)cc(OC)c1OC
-14.4	COc1cc(Nc2nc(N)c(-c3nc(-c4ccc([N+](=O)[O-])cc4)cs3)s2)cc(OC)c1OC
1.2	COc1cc(Nc2nc(N)c(-c3nc(-c4ccc(C)cc4C)cs3)s2)cc(OC)c1OC
0.1	COc1cc(Nc2nc(N)c(-c3nc(-c4ccc(Cl)cc4)cs3)s2)cc(OC)c1OC
5.4	COc1cc(Nc2nc(N)c(-c3nc(-c4ccc5c(c4)OCCO5)cs3)s2)cc(OC)c1OC
-2.1	COc1cc(Nc2nc(N)c(-c3nc(-c4ccc(C)cc4)cs3)s2)cc(OC)c1OC
6.6	COc1cc(Nc2nc(N)c(-c3nc(-c4cccc([N+](=O)[O-])c4)cs3)s2)cc(OC)c1OC
15.6	COc1cc(Nc2nc(N)c(-c3nc(-c4cccc(Br)c4)cs3)s2)cc(OC)c1OC
11.6	COc1cc(Nc2nc(N)c(-c3nc(-c4ccc5ccccc5c4)cs3)s2)cc(OC)c1OC
35	COc1cc(Nc2nc(N)c(-c3nc(-c4ccc(F)cc4)cs3)s2)cc(OC)c1OC
3.8	COc1cc(Nc2nc(N)c(-c3nc(-c4ccc(Cl)cc4Cl)cs3)s2)cc(OC)c1OC
14.3	COc1cc(Nc2nc(N)c(-c3nc(-c4ccc[nH]4)cs3)s2)cc(OC)c1OC
-6	COc1cc(Nc2nc(N)c(-c3nc(-c4cc5cc(Cl)ccc5o4)cs3)s2)cc(OC)c1OC
-0.4	COc1cccc(-c2csc(-c3sc(Nc4cc(OC)c(OC)c(OC)c4)nc3N)n2)c1
